Drawing on ChEMBL document CHEMBL1140811, “Inhibition of dipeptidyl peptidase-IV (DPP-IV) by atorvastatin” (Bioorg Med Chem Lett, 2008), this text covers inhibition, IC50 and Activity for five molecules.

In experiment [1] the target is Dipeptidyl peptidase 4 (Sus scrofa) (UniProt P22411). The experiment can be described thus: Inhibition of pig DPP4 at 500 uM.
For experiment [2], the target named is T1, Dipeptidyl peptidase 4 (Homo sapiens, UniProt P27487). Description: Inhibition of DPP4.
Target sequence in this assay (P27487 whole entry): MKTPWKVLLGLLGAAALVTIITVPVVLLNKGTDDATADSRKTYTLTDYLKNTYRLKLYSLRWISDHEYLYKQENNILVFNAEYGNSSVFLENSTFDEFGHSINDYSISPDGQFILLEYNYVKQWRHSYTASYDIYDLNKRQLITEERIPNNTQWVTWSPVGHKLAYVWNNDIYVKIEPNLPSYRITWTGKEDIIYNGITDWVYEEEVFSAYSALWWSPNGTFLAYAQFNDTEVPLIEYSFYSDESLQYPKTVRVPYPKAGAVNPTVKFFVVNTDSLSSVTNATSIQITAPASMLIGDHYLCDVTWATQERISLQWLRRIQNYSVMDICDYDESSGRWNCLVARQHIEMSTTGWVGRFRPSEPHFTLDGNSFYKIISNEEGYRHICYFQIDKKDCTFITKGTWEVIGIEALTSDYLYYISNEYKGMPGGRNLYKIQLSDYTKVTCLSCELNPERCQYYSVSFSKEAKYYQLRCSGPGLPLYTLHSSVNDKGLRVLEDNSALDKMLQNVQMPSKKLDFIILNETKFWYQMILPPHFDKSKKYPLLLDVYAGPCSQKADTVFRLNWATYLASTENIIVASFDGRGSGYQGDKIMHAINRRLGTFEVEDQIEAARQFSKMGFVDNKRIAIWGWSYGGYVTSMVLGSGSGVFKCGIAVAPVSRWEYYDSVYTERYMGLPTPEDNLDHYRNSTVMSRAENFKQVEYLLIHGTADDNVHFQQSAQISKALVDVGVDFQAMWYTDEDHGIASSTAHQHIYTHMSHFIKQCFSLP
The target in experiment [3] is Dipeptidyl peptidase 4 (Sus scrofa, UniProt P22411). Description: Inhibition of pig DPP4.
Dipeptidyl peptidase 4 (Sus scrofa, UniProt P22411), sequence (P22411 whole entry): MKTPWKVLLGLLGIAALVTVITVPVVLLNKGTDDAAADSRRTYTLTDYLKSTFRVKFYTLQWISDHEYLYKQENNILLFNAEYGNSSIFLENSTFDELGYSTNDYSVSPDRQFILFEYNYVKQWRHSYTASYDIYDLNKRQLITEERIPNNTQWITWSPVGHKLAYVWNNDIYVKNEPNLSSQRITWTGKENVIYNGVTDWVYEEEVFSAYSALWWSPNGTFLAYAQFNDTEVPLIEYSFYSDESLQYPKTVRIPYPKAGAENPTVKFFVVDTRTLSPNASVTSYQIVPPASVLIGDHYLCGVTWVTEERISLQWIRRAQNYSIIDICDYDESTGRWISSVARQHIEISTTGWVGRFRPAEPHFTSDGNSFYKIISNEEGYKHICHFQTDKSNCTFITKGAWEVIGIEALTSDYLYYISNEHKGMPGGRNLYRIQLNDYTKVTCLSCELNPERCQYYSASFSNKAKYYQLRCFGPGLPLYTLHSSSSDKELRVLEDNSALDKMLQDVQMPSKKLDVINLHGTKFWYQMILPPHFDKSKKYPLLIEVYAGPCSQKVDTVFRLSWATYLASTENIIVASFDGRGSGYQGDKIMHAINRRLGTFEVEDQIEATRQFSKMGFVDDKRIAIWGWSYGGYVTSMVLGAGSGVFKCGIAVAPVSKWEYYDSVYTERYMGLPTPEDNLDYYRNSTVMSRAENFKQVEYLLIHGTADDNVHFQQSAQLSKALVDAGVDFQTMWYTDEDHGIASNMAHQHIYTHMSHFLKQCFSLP
In experiment [4] the target is T1, Dipeptidyl peptidase 4. Description: Inhibition of DPP4 upto 3.3 mM.
Target sequence in this assay (P27487 whole entry, looked up): as the sequence (P27487 whole entry) above
In experiment [5] the target is T1, Dipeptidyl peptidase 4. Description: Inhibition of DPP4 at 30 mM.
Target sequence in this assay (P27487 whole entry, looked up): as the sequence (P27487 whole entry) above
In experiment [6] the target is T1, Dipeptidyl peptidase 4. The experiment can be described thus: Inhibition of DPP4 at 10 mM.
Target sequence in this assay (P27487 whole entry, looked up): as the sequence (P27487 whole entry) above

Each structure is given as a SMILES string. pIC50: −log10 of the molar value. Activity calls are given as the source filed them. The calls are words filed in the database; no cut-off is given here.

Dipeptidyl peptidase 4 (Sus scrofa), sequence (P22411 whole entry, looked up): as the sequence (P22411 whole entry) above

In turn, `CC(C)n1c(/C=C/[C@@H](O)C[C@@H](O)CC(=O)O)c(-c2ccc(F)cc2)c2ccccc21` gave an inhibition in experiment [1] of 8%.

As for `CN(C)C(=N)N=C(N)N` [METFORMIN], the pIC50 in experiment [2] was 4.54.

With `CC(C)c1c(C(=O)Nc2ccccc2)c(-c2ccccc2)c(-c2ccc(F)cc2)n1CC[C@@H](O)C[C@@H](O)CC(=O)O` [ATORVASTATIN], the pIC50 in experiment [3] is 3.76. In addition, the inhibition in experiment [1] is 66%.

Turning to `CN(C)C(=N)NC(=N)N`, the result in experiment [4] was inactive. For the same molecule, the inhibition was found to be 21.9% in experiment [5] and 12.7% in experiment [6].

`CC(C)c1nc(N(C)S(C)(=O)=O)nc(-c2ccc(F)cc2)c1/C=C/[C@@H](O)C[C@@H](O)CC(=O)O` registered an inhibition in experiment [1] of 4%.

As a reminder, the inhibition is the share of the control response that was lost under treatment. Read a low inhibition as little suppression. As a reminder, the pIC50 is the negative decadic logarithm of the IC50, by convention in mol/L. A lower pIC50 goes with a high IC50.
